Data published in patent publication US20140073651A1, “BENZAMIDE DERIVATIVES AS P2X7 RECEPTOR ANTAGONISTS” (Actelion Pharmaceuticals Ltd., priority 2011, published 2014).

The molecules below were run against T1, human recombinant P2X7 receptor (Homo sapiens, UniProt Q99572) (assay: YO-PRO assay (YO-PRO-1 uptake) in HEK cells stably expressing P2X7). Details: HEK-293 cells expressing human recombinant P2X7 receptor; ATP 250 μM, 90 minutes; YO-PRO-1 fluorescence (FLIPR tetra); read-out: IC50 (antagonistic activity with respect to the P2X7 receptor).
T1 construct: expressed in transfected cells
T1 sequence (Q99572 1-595): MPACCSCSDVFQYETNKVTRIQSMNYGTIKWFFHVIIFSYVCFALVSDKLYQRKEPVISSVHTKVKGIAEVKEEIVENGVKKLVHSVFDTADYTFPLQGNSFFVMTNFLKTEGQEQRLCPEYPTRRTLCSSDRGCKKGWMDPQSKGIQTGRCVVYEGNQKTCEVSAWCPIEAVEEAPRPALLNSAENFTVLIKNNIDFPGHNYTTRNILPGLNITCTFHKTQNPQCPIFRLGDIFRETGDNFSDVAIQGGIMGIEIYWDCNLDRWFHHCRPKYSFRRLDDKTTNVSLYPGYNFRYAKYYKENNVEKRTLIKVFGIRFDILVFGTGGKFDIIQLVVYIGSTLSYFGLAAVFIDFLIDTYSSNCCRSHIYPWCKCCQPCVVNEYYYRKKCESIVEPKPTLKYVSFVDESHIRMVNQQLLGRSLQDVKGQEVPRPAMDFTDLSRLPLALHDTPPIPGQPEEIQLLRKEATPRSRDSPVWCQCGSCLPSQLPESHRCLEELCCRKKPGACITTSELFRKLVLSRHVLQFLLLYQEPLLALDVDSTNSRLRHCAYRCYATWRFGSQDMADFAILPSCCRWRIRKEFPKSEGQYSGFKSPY
Format: cell-based
Procedure: Cell line generation was performed in general according to established molecular cloning protocols. Specifically, RNA was extracted from human whole blood using the Qiagen RNeasy kit (Qiagen, CH) according to the manufacturer's instructions. Subsequently cDNA was made (Superscript II, Invitrogen AG, CH) and the human P2X7 gene (genbank ref. BC011913) was amplified with the following primers: [NT] and [NT] The amplified sequence was subsequently ligated into a pcDNA3.1 (+) NotI, NheI digested plasmid. […] Following a 24 h exposure to DNA, cells were trypsinized and re-seeded at low density in the presence of 250 μg Geneticin. Geneticin resistant cells were then selected during two consecutive rounds of cloning by serial limiting dilution with visual inspection. Individual clones were screened for P2X7 expression by applying ATP and recording the resultant uptake of YO-[…]. Specific cell clones were chosen based on RNA and protein expression. HEK cells stably expressing P2X7 were used to screen drugs using the YO-[…] assay. Cells were grown to confluency in adherent culture at 37° C. in a humidified 5% CO2 incubator (split 1/5 every 3-4 days with DMEM, 10% FCS, 1% Penicillin/Streptomycin, 250 μg/ml Geneticin). Adherent cells were detached by incubation with Trypsine (1 ml per 165 cm^2 dish) for 2 minutes, then washed off with 10 ml PBS (without Mg^2+ and Ca^2+), and resuspended in DMEM, 10% FCS, 1% Penicillin/Streptomycin, no Geneticin. 10'000 cells per well (48 hours before the assay) or 25'000 cells per well (Vi-cell XR (Beckman Coulter) (24 hours before the assay) in 50 μl full medium were seeded on 384-well black-wall, clear bottom plates, that were coated before with 10 μl per well Poly-L-Lysine, incubated for 30-60 minutes at 37° C. and washed once with PBS. Medium was removed from cells and 50 μl of assay buffer containing 0.5 μM YO-[…] was added into the wells. Solutions of antagonist compounds were prepared by serial dilutions of a 10 mM DMSO solution of the antagonist into PBS using a BioMek (Beckman Coulter). Each concentration was performed in duplicate. […] During this time period, four time points were taken. Each time point comprised the average of several measurements made within a few seconds. […] The FLIPR tetra was equipped with Molecular Devices Screen Works system control software to define and run experimental protocols. […] For IC50 measurements the maximum intensity is plotted against the concentration of compound to determine IC50 values.
With `CN(c1ccc(Cl)c(C(=O)NCC2(O)CCCC2)c1)c1ccnc(=O)[nH]1` [Example 50, 2-Chloro-N-(1-hydroxy-cyclopentylmethyl)-5-[methyl-(2-oxo-2,3-dihydro-pyrimidin-4-yl)-amino]-benzamide] the IC50 was 258 nM. Molecule `COC1(CNC(=O)c2cc(N(C)c3ccnc(Cl)n3)ccc2Cl)CCCCC1` [Example 51, 2-Chloro-5-[(2-chloro-pyrimidin-4-yl)-methyl-amino]-N-(1-methoxy-cyclohexylmethyl)-benzamide] has an IC50 of 460 nM. Molecule `COC1(CNC(=O)c2cc(N(C)c3ccnc(=O)[nH]3)ccc2Cl)CCCCC1` [Example 52, 2-Chloro-N-(1-methoxy-cyclohexylmethyl)-5-[methyl-(2-oxo-2,3-dihydro-pyrimidin-4-yl)-amino]-benzamide] has an IC50 of 170 nM. `CN(c1ccc(Cl)c(C(=O)NCC2(C(N)=O)CCCCC2)c1)c1ccnc(Cl)n1` [Example 53, N-(1-Carbamoyl-cyclohexylmethyl)-2-chloro-5-[(2-chloro-pyrimidin-4-yl)-methyl-amino]-benzamide] showed an IC50 of 576 nM. In the case of `CN(c1ccc(Cl)c(C(=O)NCC2(C(N)=O)CCCCC2)c1)c1ccnc(=O)[nH]1` [Example 54, N-(1-Carbamoyl-cyclohexylmethyl)-2-chloro-5-[methyl-(2-oxo-2,3-dihydro-pyrimidin-4-yl)-amino]-benzamide], the IC50 is reported as 231 nM. Work on `CN(c1ccc(Cl)c(C(=O)NCC2(CO)CCCCC2)c1)c1ccnc(Cl)n1` [Example 55, 2-Chloro-5-[(2-chloro-pyrimidin-4-yl)-methyl-amino]-N-(1-hydroxymethyl-cyclohexylmethyl)-benzamide] yielded an IC50 of 482 nM. Work on `CN(c1ccc(Cl)c(C(=O)NCC2(CO)CCCCC2)c1)c1ccnc(=O)[nH]1` [Example 56, 2-Chloro-N-(1-hydroxymethyl-cyclohexylmethyl)-5-[methyl-(2-oxo-2,3-dihydro-pyrimidin-4-yl)-amino]-benzamide] yielded an IC50 of 74 nM. `CN(c1ccc(Cl)c(C(=O)NCC2(O)CCC(F)(F)CC2)c1)c1ccnc(Cl)n1` [Example 57, 2-Chloro-5-[(2-chloro-pyrimidin-4-yl)-methyl-amino]-N-(4,4-difluoro-1-hydroxy-cyclohexylmethyl)-benzamide] was tested, and the IC50 was 214 nM. Molecule `CN(c1ccc(Cl)c(C(=O)NCC2(O)CCC(F)(F)CC2)c1)c1ccnc(=O)[nH]1` [Example 58, 2-Chloro-N-(4,4-difluoro-1-hydroxy-cyclohexylmethyl)-5-[methyl-(2-oxo-2,3-dihydro-pyrimidin-4-yl)-amino]-benzamide] has an IC50 of 51 nM. For `CSc1nccc(Nc2ccc(Cl)c(C(=O)N[C@H](C)C3CCCCC3)c2)n1` [Example 59, 2-Chloro-N—((R)-1-cyclohexyl-ethyl)-5-(2-methylsulfanyl-pyrimidin-4-ylamino)-benzamide], the IC50 was 1810 nM. `CSc1nccc(Nc2ccc(Cl)c(C(=O)N[C@H](CO)C3CCCCC3)c2)n1` [Example 60, 2-Chloro-N—((S)-1-cyclohexyl-2-hydroxy-ethyl)-5-(2-methylsulfanyl-pyrimidin-4-ylamino)-benzamide] gave an IC50 of 1030 nM. `CSc1nccc(Nc2ccc(Cl)c(C(=O)NCC3(O)CCCCCC3)c2)n1` [Example 61, 2-Chloro-N-(1-hydroxy-cycloheptylmethyl)-5-(2-methylsulfanyl-pyrimidin-4-ylamino)-benzamide] was tested, and the IC50 was 681 nM. With `CN(c1ccc(Cl)c(C(=O)NCC2(O)CCCCC2)c1)c1cc(Cl)nc(Cl)n1` [Example 62, 2-Chloro-5-[(2,6-dichloro-pyrimidin-4-yl)-methyl-amino]-N-(1-hydroxy-cyclohexylmethyl)-benzamide] the IC50 was 416 nM. `COc1nc(Cl)cc(N(C)c2ccc(Cl)c(C(=O)NCC3(O)CCCCC3)c2)n1` [Example 63, 2-Chloro-5-[(6-chloro-2-methoxy-pyrimidin-4-yl)-methyl-amino]-N-(1-hydroxy-cyclohexylmethyl)-benzamide] gave an IC50 of 307 nM. Molecule `CN(c1ccc(Cl)c(C(=O)NCC2(O)CCCCC2)c1)c1cc(Cl)[nH]c(=O)n1` [Example 64, 2-Chloro-5-[(6-chloro-2-oxo-1,2-dihydro-pyrimidin-4-yl)-methyl-amino]-N-(1-hydroxy-cyclohexylmethyl)-benzamide] has an IC50 of 902 nM. Work on `CSc1cc(N(C)c2ccc(Cl)c(C(=O)NCC3(O)CCCCC3)c2)ncn1` [Example 65, 2-Chloro-N-(1-hydroxy-cyclohexylmethyl)-5-[methyl-(6-methylsulfanyl-pyrimidin-4-yl)-amino]-benzamide] yielded an IC50 of 205 nM. `CN(c1ccc(Cl)c(C(=O)NCC2(O)CCCCC2)c1)c1cc(S(C)(=O)=O)ncn1` [Example 66, 2-Chloro-N-(1-hydroxy-cyclohexylmethyl)-5-[(6-methanesulfonyl-pyrimidin-4-yl)-methyl-amino]-benzamide] showed an IC50 of 158 nM. For `COc1cc(N(C)c2ccc(Cl)c(C(=O)NCC3(O)CCCCC3)c2)ncn1` [Example 67, 2-Chloro-N-(1-hydroxy-cyclohexylmethyl)-5-[(6-methoxy-pyrimidin-4-yl)-methyl-amino]-benzamide], the IC50 was 337 nM. For `CN(c1ccc(Cl)c(C(=O)NCC2(O)CCCCC2)c1)c1cc(=O)[nH]cn1` [Example 68, 2-Chloro-N-(1-hydroxy-cyclohexylmethyl)-5-[methyl-(6-oxo-1,6-dihydro-pyrimidin-4-yl)-amino]-benzamide], the IC50 was 288 nM. In the case of `O=C(NCC1(O)CCCCC1)c1cc(Nc2ncccn2)ccc1Cl` [Example 69, 2-Chloro-N-(1-hydroxy-cyclohexylmethyl)-5-(pyrimidin-2-ylamino)-benzamide], the IC50 is reported as 326 nM. For `CN(c1ccc(Cl)c(C(=O)NCC2(O)CCCCC2)c1)c1ncccn1` [Example 70, 2-Chloro-N-(1-hydroxy-cyclohexylmethyl)-5-(methyl-pyrimidin-2-yl-amino)-benzamide], the IC50 was 373 nM. `COCCN(c1ccc(Cl)c(C(=O)NCC2(O)CCCCC2)c1)c1ncccn1` [Example 71, 2-Chloro-N-(1-hydroxy-cyclohexylmethyl)-5-[(2-methoxy-ethyl)-pyrimidin-2-yl-amino]-benzamide] was tested, and the IC50 was 2000 nM. For `CSc1ccnc(Nc2ccc(Cl)c(C(=O)NCC3(O)CCCCC3)c2)n1` [Example 72, 2-Chloro-N-(1-hydroxy-cyclohexylmethyl)-5-(4-methylsulfanyl-pyrimidin-2-ylamino)-benzamide], the IC50 was 1460 nM. `CSc1ccnc(N(C)c2ccc(Cl)c(C(=O)NCC3(O)CCCCC3)c2)n1` [Example 73, 2-Chloro-N-(1-hydroxy-cyclohexylmethyl)-5-[methyl-(4-methylsulfanyl-pyrimidin-2-yl)-amino]-benzamide] showed an IC50 of 322 nM. Work on `COc1ccnc(N(C)c2ccc(Cl)c(C(=O)NCC3(O)CCCCC3)c2)n1` [Example 74, 2-Chloro-N-(1-hydroxy-cyclohexylmethyl)-5-[(4-methoxy-pyrimidin-2-yl)-methyl-amino]-benzamide] yielded an IC50 of 280 nM. `CN(c1ccc(Cl)c(C(=O)NCC2(O)CCCCC2)c1)c1nccc(=O)[nH]1` [Example 75, 2-Chloro-N-(1-hydroxy-cyclohexylmethyl)-5-[methyl-(6-oxo-1,6-dihydro-pyrimidin-2-yl)-amino]-benzamide] gave an IC50 of 1020 nM. In the case of `O=C(NCC1(O)CCCCC1)c1cc(Nc2cncnc2)ccc1Cl` [Example 76, 2-Chloro-N-(1-hydroxy-cyclohexylmethyl)-5-(pyrimidin-5-ylamino)-benzamide], the IC50 is reported as 418 nM. Work on `COCCN(c1cncnc1)c1ccc(Cl)c(C(=O)NCC2(O)CCCCC2)c1` [Example 77, 2-Chloro-N-(1-hydroxy-cyclohexylmethyl)-5-[(2-methoxy-ethyl)-pyrimidin-5-yl-amino]-benzamide] yielded an IC50 of 1460 nM.
